Test results published in the NIST ThermoML archive (doi:10.1016/j.jct.2019.02.025).

Experiments:
[1] = for mass density / kinematic viscosity: 101.33 kPa, Liquid; for mass density: Vibrating tube method; for surface tension liquid-gas / kinematic viscosity: Surface laser light scattering (SLLS)
[2] = refractive index (Na D-line) (dimensionless); conditions: 101.33 kPa, Liquid, Standard Abbe refractometry

CCCCCCCCCC(=O)OC [methyl decanoate]
Conditions	kinematic viscosity [m2/s]	mass density [kg/m3]	refractive index	surface tension liquid-gas [mN/m]
[1], 293.15 K	–	872.34	–	–
[1], 298.14 K	2.09e-06	–	–	24.73
[1], 303.15 K	–	864.01	–	–
[1], 313.15 K	–	855.73	–	–
[1], 323.15 K	–	847.47	–	–
[1], 323.16 K	1.48e-06	–	–	23.28
[1], 333.15 K	–	839.2	–	–
[1], 343.15 K	–	830.94	–	–
[1], 348.16 K	1.13e-06	–	–	21.96
[1], 353.15 K	–	822.61	–	–
[1], 363.15 K	–	814.38	–	–
[1], 373.15 K	–	806.06	–	–
[1], 373.17 K	8.74e-07	–	–	20.49
[1], 383.15 K	–	797.7	–	–
[1], 393.15 K	–	789.29	–	–
[1], 398.08 K	6.87e-07	–	–	18.81
[1], 403.15 K	–	780.82	–	–
[1], 413.15 K	–	771.74	–	–
[1], 422.99 K	5.61e-07	–	–	16.83
[1], 423.15 K	–	763.71	–	–
[1], 433.15 K	–	755	–	–
[1], 443.15 K	–	746.3	–	–
[1], 447.95 K	4.52e-07	–	–	14.87
[1], 453.15 K	–	737.39	–	–
[2], 278.15 K	–	–	1.43209	–
[2], 283.15 K	–	–	1.42995	–
[2], 288.15 K	–	–	1.42783	–
[2], 293.15 K	–	–	1.42571	–
[2], 298.15 K	–	–	1.42359	–
[2], 303.15 K	–	–	1.42148	–
[2], 308.15 K	–	–	1.41938	–
[2], 313.15 K	–	–	1.41726	–
[2], 318.15 K	–	–	1.4151	–
[2], 323.15 K	–	–	1.41295	–
[2], 328.15 K	–	–	1.41083	–
[2], 333.15 K	–	–	1.40871	–
[2], 338.15 K	–	–	1.40659	–
[2], 343.15 K	–	–	1.40448	–
[2], 348.15 K	–	–	1.40237	–
[2], 353.15 K	–	–	1.40028	–
[2], 358.15 K	–	–	1.39819	–

CCCCCCCCCCCC(=O)OCC [ethyl dodecanoate]
Conditions	kinematic viscosity [m2/s]	mass density [kg/m3]	refractive index	surface tension liquid-gas [mN/m]
[1], 293.15 K	–	862	–	–
[1], 298.03 K	3.11e-06	–	–	26.84
[1], 303.15 K	–	853.15	–	–
[1], 313.15 K	–	845.31	–	–
[1], 323.15 K	1.98e-06	838.31	–	24.54
[1], 333.15 K	–	830.53	–	–
[1], 343.15 K	–	822.74	–	–
[1], 348.25 K	1.44e-06	–	–	22.85
[1], 353.15 K	–	814.95	–	–
[1], 363.15 K	–	807.16	–	–
[1], 373.15 K	–	799.37	–	–
[1], 373.4 K	1.09e-06	–	–	21.17
[1], 383.15 K	–	791.55	–	–
[1], 393.15 K	–	783.72	–	–
[1], 398.14 K	8.72e-07	–	–	19.32
[1], 403.15 K	–	775.85	–	–
[1], 413.15 K	–	767.94	–	–
[1], 423.13 K	7.19e-07	–	–	17.83
[1], 423.15 K	–	759.99	–	–
[1], 433.15 K	–	751.6	–	–
[1], 443.15 K	–	744.05	–	–
[1], 448.22 K	5.91e-07	–	–	15.95
[1], 453.15 K	–	735.97	–	–
[2], 278.15 K	–	–	1.43791	–
[2], 283.15 K	–	–	1.43583	–
[2], 288.15 K	–	–	1.43375	–
[2], 293.15 K	–	–	1.43169	–
[2], 298.15 K	–	–	1.42961	–
[2], 303.15 K	–	–	1.42755	–
[2], 308.15 K	–	–	1.42547	–
[2], 313.15 K	–	–	1.42335	–
[2], 318.15 K	–	–	1.42125	–
[2], 323.15 K	–	–	1.41915	–
[2], 328.15 K	–	–	1.41707	–
[2], 333.15 K	–	–	1.41501	–
[2], 338.15 K	–	–	1.41295	–
[2], 343.15 K	–	–	1.4109	–
[2], 348.15 K	–	–	1.40886	–
[2], 353.15 K	–	–	1.40684	–
[2], 358.15 K	–	–	1.40479	–

CCCCCC(=O)OCC [ethyl hexanoate]
Conditions	kinematic viscosity [m2/s]	mass density [kg/m3]	refractive index	surface tension liquid-gas [mN/m]
[1], 293.15 K	–	871.07	–	–
[1], 298.26 K	1.13e-06	–	–	24.65
[1], 303.15 K	–	861.61	–	–
[1], 313.15 K	–	851.2	–	–
[1], 323.06 K	8.14e-07	–	–	22.27
[1], 323.15 K	–	842.71	–	–
[1], 333.15 K	–	833.25	–	–
[1], 343.15 K	–	823.72	–	–
[1], 348.04 K	6.25e-07	–	–	20.08
[1], 353.15 K	–	814.13	–	–
[1], 363.15 K	–	804.45	–	–
[1], 372.96 K	5e-07	–	–	17.81
[1], 373.15 K	–	794.69	–	–
[1], 383.15 K	–	784.83	–	–
[1], 393.15 K	–	774.87	–	–
[1], 397.73 K	4.11e-07	–	–	15.68
[1], 403.15 K	–	764.77	–	–
[1], 413.15 K	–	754.53	–	–
[1], 422.94 K	3.46e-07	–	–	13.51
[1], 423.15 K	–	744.07	–	–
[1], 447.88 K	3.03e-07	–	–	11.43
[2], 278.15 K	–	–	1.41438	–
[2], 283.15 K	–	–	1.4121	–
[2], 288.15 K	–	–	1.40982	–
[2], 293.15 K	–	–	1.40753	–
[2], 298.15 K	–	–	1.40525	–
[2], 303.15 K	–	–	1.40295	–
[2], 308.15 K	–	–	1.40063	–
[2], 313.15 K	–	–	1.39829	–
[2], 318.15 K	–	–	1.39594	–
[2], 323.15 K	–	–	1.3936	–
[2], 328.15 K	–	–	1.39128	–
[2], 333.15 K	–	–	1.38897	–
[2], 338.15 K	–	–	1.38667	–
[2], 343.15 K	–	–	1.38438	–
[2], 348.15 K	–	–	1.3821	–
[2], 353.15 K	–	–	1.37983	–
[2], 358.15 K	–	–	1.37754	–
